# In the Kinase Knowledgebase extract (Sharma et al. 2016):
# Biological target: PIK3CA (human) (UniProt P42336)
# Test: Cell-Based Assay
# Conditions: mda-mb-361
# Chain of PIK3CA (human) (P42336 whole entry, looked up): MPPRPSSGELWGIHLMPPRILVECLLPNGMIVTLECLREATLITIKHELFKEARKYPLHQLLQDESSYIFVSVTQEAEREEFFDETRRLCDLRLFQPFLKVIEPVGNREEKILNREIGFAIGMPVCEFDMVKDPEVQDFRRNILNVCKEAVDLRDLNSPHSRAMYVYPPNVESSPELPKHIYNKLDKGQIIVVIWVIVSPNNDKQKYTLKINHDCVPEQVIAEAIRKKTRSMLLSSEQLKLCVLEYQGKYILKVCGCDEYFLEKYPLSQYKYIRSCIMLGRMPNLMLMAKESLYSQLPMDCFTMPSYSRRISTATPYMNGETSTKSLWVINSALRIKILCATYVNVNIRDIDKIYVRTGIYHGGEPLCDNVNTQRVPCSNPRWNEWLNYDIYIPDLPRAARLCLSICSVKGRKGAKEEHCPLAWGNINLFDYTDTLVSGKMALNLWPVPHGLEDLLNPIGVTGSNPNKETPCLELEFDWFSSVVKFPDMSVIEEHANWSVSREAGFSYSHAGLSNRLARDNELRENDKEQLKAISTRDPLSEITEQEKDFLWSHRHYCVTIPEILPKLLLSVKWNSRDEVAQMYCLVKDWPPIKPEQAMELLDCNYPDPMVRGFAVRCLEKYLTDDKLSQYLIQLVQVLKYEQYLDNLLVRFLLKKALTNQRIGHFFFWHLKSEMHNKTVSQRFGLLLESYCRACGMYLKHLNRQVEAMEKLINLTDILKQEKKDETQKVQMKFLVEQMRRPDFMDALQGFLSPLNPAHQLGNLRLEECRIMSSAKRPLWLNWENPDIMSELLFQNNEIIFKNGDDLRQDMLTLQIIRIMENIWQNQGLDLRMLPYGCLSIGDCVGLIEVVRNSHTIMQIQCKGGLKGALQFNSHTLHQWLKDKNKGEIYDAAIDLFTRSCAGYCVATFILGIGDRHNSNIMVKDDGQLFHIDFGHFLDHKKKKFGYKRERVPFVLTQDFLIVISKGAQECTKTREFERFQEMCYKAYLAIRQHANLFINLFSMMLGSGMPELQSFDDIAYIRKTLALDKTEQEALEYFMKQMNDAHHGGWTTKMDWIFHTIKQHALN
row,IC50 [nM],Structure (SMILES)
1,100 to 1000,Nc1nc2cc(-c3ccc4ncc(N5CCC(O)CC5)nc4n3)ccc2o1
2,100 to 1000,CC(C)N1CCN(C2CN(c3cnc4ccc(-c5ccc6oc(N)nc6c5)nc4c3)C2)CC1
3,100 to 1000,Nc1nc2cc(-c3ccc4ncc(N5CC6CCC(C5)O6)cc4n3)ccc2o1
4,> 10000,C[C@H]1COCCN1C1CN(c2cnc3ccc(-c4ccc5oc(N)nc5c4)nc3n2)C1
5,100 to 1000,C[C@@H]1CN(C2CN(c3cnc4ccc(-c5ccc6oc(N)nc6c5)nc4c3)C2)CCN1C
6,100 to 1000,CC1(C)CN(C2CN(c3cnc4ccc(-c5ccc6oc(N)nc6c5)nc4c3)C2)CCN1
7,100 to 1000,C[C@@H]1CN(C2CN(c3cnc4ccc(-c5ccc6oc(N)nc6c5)nc4c3)C2)CCN1
8,100 to 1000,CN1CCN(C2CN(c3cnc4ccc(-c5ccc6oc(N)nc6c5)nc4c3)C2)CC1=O
9,100 to 1000,Nc1nc2cc(-c3ccc4ncc(N5CC6CCC(C5)O6)nc4n3)ccc2o1
10,100 to 1000,C[C@H]1COCCN1c1cnc2ccc(-c3ccc4oc(N)nc4c3)nc2n1
11,100 to 1000,Nc1nc2cc(-c3ccc4ncc(N5CC(N6CCN(CCO)CC6)C5)cc4n3)ccc2o1
12,100 to 1000,Nc1nc2cc(-c3ccc4ncc(N5CCN(C(=O)C6(N)CC6)CC5)cc4n3)ccc2o1
13,100 to 1000,C[C@H]1CN(C2CN(c3cnc4ccc(-c5ccc6oc(N)nc6c5)nc4c3)C2)CCN1
14,100 to 1000,CC1(C)CN(C2CN(c3cnc4ccc(-c5ccc6oc(N)nc6c5)nc4n3)C2)CCN1
15,100 to 1000,Nc1nc2cc(-c3ccc4ncc(N5CC(N6CCN(CC7CC7)CC6)C5)cc4n3)ccc2o1
16,100 to 1000,Nc1nc2cc(-c3ccc4ncc(N5CCNC(=O)C5)nc4n3)ccc2o1
17,100 to 1000,CC(C)(N)C(=O)N1CCN(c2cnc3ccc(-c4ccc5oc(N)nc5c4)nc3c2)CC1
18,> 10000,Nc1nc2cc(-c3ccc4ncc(-c5cccnc5)cc4n3)ccc2o1
19,100 to 1000,C[C@H]1CN(C2CN(c3cnc4ccc(-c5ccc6oc(N)nc6c5)nc4c3)C2)CCN1C
20,100 to 1000,CCOC(=O)N1CC=C(c2cnc3ccc(-c4ccc5oc(N)nc5c4)nc3n2)CC1
21,100 to 1000,C[C@@H]1COCCN1c1cnc2ccc(-c3ccc4oc(N)nc4c3)nc2n1
22,100 to 1000,Nc1nc2cc(-c3ccc4ncc(N5CCOCC5)nc4n3)ccc2o1
23,100 to 1000,CCOC(=O)N1CCN(c2cnc3ccc(-c4ccc5oc(N)nc5c4)nc3n2)CC1
24,100 to 1000,CCOC(=O)N1CCN(c2cnc3ccc(-c4ccc5oc(N)nc5c4)nc3c2)CC1
25,100 to 1000,CN1CCN(C2CN(c3cnc4ccc(-c5ccc6oc(N)nc6c5)nc4c3)C2)CC1
26,> 10000,Nc1nc2cc(-c3ccc4ncc(N5CC(N6CCNCC6)C5)nc4n3)ccc2o1
27,> 10000,NCC(=O)N1CCN(c2cnc3ccc(-c4ccc5oc(N)nc5c4)nc3n2)CC1
28,100 to 1000,CCN1CCN(C2CN(c3cnc4ccc(-c5ccc6oc(N)nc6c5)nc4c3)C2)CC1

row,Structure (SMILES),IC50 [nM]
1,Nc1nc2cc(-c3ccc4ncc(N5C6CCC5COC6)nc4n3)ccc2o1,100 to 1000

# Same assay, conditions: pc3
row,IC50 [nM],Structure (SMILES)
1,100 to 1000,C[C@H]1CN(C2CN(C(=O)c3cnc4ccc(-c5ccc6oc(N)nc6c5)cn34)C2)CCN1C
2,100 to 1000,CS(=O)(=O)N1CCN(Cc2cc3nc(-c4ccc5oc(N)nc5c4)nc(N4CCOCC4)c3s2)CC1
3,100 to 1000,Nc1nc2cc(-c3ccc4ncc(C(=O)N5CC[C@H](n6cccn6)C5)n4c3)ccc2o1
4,100 to 1000,Nc1nc2cc(-c3ccc4ncc(C(=O)N5CC(F)(F)C5)n4c3)ccc2o1
5,100 to 1000,COc1ncc(-c2ccc3ncc(C(=O)N4CCOCC4)n3c2)cc1NS(=O)(=O)c1cccnc1
6,100 to 1000,COC1CN(C(=O)c2cnc3ccc(-c4ccc5oc(N)nc5c4)cn23)C1
7,< 100,Cn1c(=O)n(-c2ccc(C(C)(C)C#N)cc2)c2c3cc(-c4ccc5oc(N)nc5c4)ccc3ncc21
8,100 to 1000,C[C@@H]1CN(C2CN(C(=O)c3cnc4ccc(-c5ccc6oc(N)nc6c5)cn34)C2)CCN1C
9,100 to 1000,COc1ncc(-c2ccc3ncn(C4CCN(C(C)C)CC4)c(=O)c3c2)cc1NS(=O)(=O)c1ccccc1
10,< 100,CC(=O)Nc1cn2cc(-c3ccc4oc(N)nc4c3)ccc2n1
11,100 to 1000,O=C(c1cnc2ccc(-c3cnc(Cl)c(NS(=O)(=O)c4cccc(F)c4)c3)cn12)N1CCOCC1
12,100 to 1000,O=C(c1cnc2ccc(-c3cnc(Cl)c(NS(=O)(=O)c4ccc(F)cc4)c3)cn12)N1CCOCC1
13,100 to 1000,COc1ncc(-c2ccc3ncn(C4CCN(C)CC4)c(=O)c3c2)cc1NS(=O)(=O)c1ccccc1
14,100 to 1000,O=C(c1cnc2ccc(-c3cnc(Cl)c(NS(=O)(=O)c4ccccc4)c3)cn12)N1CCOCC1
15,100 to 1000,CN1CCC(N(C)C(=O)c2cnc3ccc(-c4ccc5oc(N)nc5c4)cn23)CC1

# Same assay, conditions: t47d
row,IC50 [nM],Structure (SMILES)
1,100 to 1000,Nc1nc2cc(-c3ccc4ncc(N5CCN(C(=O)[C@H](N)CO)CC5)nc4c3)ccc2o1
2,100 to 1000,CC(C)(N)C(=O)N1CCN(c2cnc3ccc(-c4ccc5oc(N)nc5c4)cc3n2)CC1
3,100 to 1000,Nc1nc2cc(-c3ccc4ncc(C(=O)N5CC[C@H](O)C5)n4c3)ccc2o1
4,100 to 1000,Cc1nccn1C1CN(c2cnc3ccc(-c4ccc5oc(N)nc5c4)cc3n2)C1
5,100 to 1000,Nc1nc2cc(-c3ccc4ncc(NC5CCOCC5)nc4c3)ccc2o1
6,> 10000,Nc1nc2cc(-c3ccc4ncc(C(=O)Nc5cccnc5)n4c3)ccc2o1
7,100 to 1000,Nc1nc2cc(-c3ccn4ncc(-c5ccncc5)c4c3)ccc2o1
8,100 to 1000,Nc1nc2cc(-c3ccc4ncc(N5CCCC5)nc4c3)ccc2o1
9,100 to 1000,Nc1nc2cc(-c3ccc4ncc(N5CCN(CCO)CC5)nc4c3)ccc2o1
10,100 to 1000,CC(=O)N1CCC(N(C)c2ncnc3ccc(-c4ccc5oc(N)nc5c4)cc23)CC1
11,100 to 1000,CC(C)[C@@H](N)C(=O)N1CCN(c2cnc3ccc(-c4ccc5oc(N)nc5c4)cc3n2)CC1
12,> 10000,CN1CC(C(=O)N2CCC(Nc3ncnc4ccc(-c5ccc6oc(N)nc6c5)cc34)CC2)C1
13,100 to 1000,CN1CCN(c2cnc3ccc(-c4ccc5oc(N)nc5c4)cc3n2)CC1=O
14,100 to 1000,Nc1nc2cc(-c3ccc4ncc(N5CCN(C(=O)[C@@H]6CCCN6)CC5)nc4c3)ccc2o1
15,100 to 1000,C[C@H](N)C(=O)N1CCN(c2cnc3ccc(-c4ccc5oc(N)nc5c4)cc3n2)CC1
16,100 to 1000,Nc1nc2cc(-c3ccc4ncc(N5CCC(N6CCOCC6)CC5)nc4c3)ccc2o1
17,100 to 1000,Nc1nc2cc(-c3ccc4ncc(N5CCN(CC6CC6)CC5)nc4c3)ccc2o1
18,100 to 1000,Nc1nc2cc(-c3ccc4ncc(C(=O)N5CC[C@@H](O)C5)n4c3)ccc2o1
19,100 to 1000,CNC(=O)N1CCN(c2cnc3ccc(-c4ccc5oc(N)nc5c4)cc3n2)CC1

row,IC50 [nM],Structure (SMILES)
1,100 to 1000,CS(=O)(=O)N1CCN(C(=O)c2cnc3ccc(-c4ccc5oc(N)nc5c4)cn23)CC1
2,100 to 1000,CCN(CC)CC(=O)N1CCN(c2cnc3ccc(-c4ccc5oc(N)nc5c4)cc3n2)CC1
3,100 to 1000,Nc1nc2cc(-c3ccc4ncc(N5CC(N6CCS(=O)(=O)CC6)C5)nc4c3)ccc2o1
4,100 to 1000,Nc1nc2cc(-c3ccc4ncc(N5CC(C(=O)N6CCOCC6)C5)nc4c3)ccc2o1
5,100 to 1000,C[C@@H]1CN(C(=O)C2CN(c3cnc4ccc(-c5ccc6oc(N)nc6c5)cc4n3)C2)CCN1
6,100 to 1000,Nc1nc2cc(-c3ccc4ncc(N5CCNC(=O)C5)nc4c3)ccc2o1
7,100 to 1000,Nc1nc2cc(-c3ccc4ncc(C(=O)NCCO)n4c3)ccc2o1
8,> 10000,Cc1cn(-c2cnc3ccc(-c4ccc5oc(N)nc5c4)cc3n2)cn1
9,100 to 1000,Nc1nc2cc(-c3ccc4ncc(C(=O)NC5CC5)n4c3)ccc2o1
10,100 to 1000,CC(N)C(=O)N1CCN(c2cnc3ccc(-c4ccc5oc(N)nc5c4)cc3n2)CC1 (stereo not given)
11,100 to 1000,Nc1nc2cc(-c3ccc4ncc(-c5cnn(CCO)c5)nc4c3)ccc2o1
12,100 to 1000,CN1CCN(C(=O)C2CN(c3cnc4ccc(-c5ccc6oc(N)nc6c5)cc4n3)C2)CC1
13,100 to 1000,CS(=O)(=O)CCN1CCN(c2cnc3ccc(-c4ccc5oc(N)nc5c4)cc3n2)CC1
14,100 to 1000,C[C@H]1CN(C(=O)C2CN(c3cnc4ccc(-c5ccc6oc(N)nc6c5)cc4n3)C2)CCN1
15,100 to 1000,Nc1nc2cc(-c3ccc4ncc(N5CC(N6CCOCC6)C5)nc4c3)ccc2o1
16,100 to 1000,Nc1nc2cc(-c3ccc4ncc(N5CCOCC5)nc4c3)ccc2s1
17,100 to 1000,CN1CCN(CCNc2cnc3ccc(-c4ccc5oc(N)nc5c4)cc3n2)CC1
18,100 to 1000,Nc1nc2cc(-c3ccc4ncc(N5CCN(C(=O)CN6CCCC6)CC5)nc4c3)ccc2o1
19,100 to 1000,CN1CCN(C2CN(C(=O)c3cnc4ccc(-c5ccc6oc(N)nc6c5)cn34)C2)CC1

row,IC50 [nM],Structure (SMILES)
1,100 to 1000,Nc1noc2cc(-c3ccc4nccc(-c5ccncc5)c4c3)ccc12
2,100 to 1000,Nc1nc2cc(-c3ccc4ncc(N5CC(N6CCN(CCO)CC6)C5)nc4c3)ccc2o1
3,> 10000,Nc1nc2cc(-c3ccc4ncc(N5CCCCC5)nc4c3)ccc2o1
4,100 to 1000,C[C@@H]1CN(C2CN(c3cnc4ccc(-c5ccc6oc(N)nc6c5)cc4n3)C2)CCN1
5,100 to 1000,Nc1nc2cc(-c3ccc4ncc(N5CC(C(=O)N6CCN(C7CC7)CC6)C5)nc4c3)ccc2o1
6,100 to 1000,CC(=O)Nc1cn2cc(-c3ccc4oc(N)nc4c3)ccc2n1
7,100 to 1000,CNC(=O)CN1CCN(c2cnc3ccc(-c4ccc5oc(N)nc5c4)cc3n2)CC1
8,100 to 1000,CN1CCN(C2CN(c3cnc4ccc(-c5ccc6oc(N)nc6c5)cc4n3)C2)CC1
9,100 to 1000,CC(=O)N1CCC(Nc2ncnc3ccc(-c4ccc5oc(N)nc5c4)nc23)CC1
10,100 to 1000,Nc1nc2cc(-c3ccc4ncc(N5CC(N6CCN(CC7CC7)CC6)C5)nc4c3)ccc2o1
11,100 to 1000,Nc1nc2cc(-c3ccc4ncnc(OC5CCOCC5)c4c3)ccc2o1
12,100 to 1000,CC(C)N1CCN(C(=O)C2CN(c3cnc4ccc(-c5ccc6oc(N)nc6c5)cc4n3)C2)CC1
13,> 10000,CC1CN(c2cnc3ccc(-c4ccc5oc(N)nc5c4)cc3n2)CCN1 (stereo not given)
14,100 to 1000,Nc1nc2cc(-c3ccc4ncc(C(=O)NCCCN5CCCC5)n4c3)ccc2o1
15,100 to 1000,CCNC(=O)c1cnc2ccc(-c3ccc4oc(N)nc4c3)cn12
16,> 10000,Nc1nc2cc(-c3ccc4nnc(C(=O)N5CCOCC5)n4c3)ccc2o1
17,100 to 1000,CN1CC(C(=O)N2CCN(c3cnc4ccc(-c5ccc6oc(N)nc6c5)cc4n3)CC2)C1
18,100 to 1000,CN1CCC(Nc2ncnc3ccc(-c4ccc5oc(N)nc5c4)nc23)CC1
